Measured values from patent publication US20150374725A1, “METHODS AND COMPOSITIONS FOR TREATING AND PREVENTING INTESTINAL INJURY AND DISEASES RELATED TO TIGHT JUNCTION DYSFUNCTION” (PRELIEF INC., priority 2013, published 2015).
Values belong to the compound of their own block, whether it stands above or below them.

Experiments:
[1] = tested on: Caco-2 cells; assay: Baseline trans-epithelial electrical resistance (TEER); assay type: cell-based, human
[2] = Solubility in water; assay type: physicochemical
[3] = tested on: Caco-2 cells; assay: Transepithelial mannitol flux induced by cytomix; assay type: cell-based, human; conditions: cytomix plus CGP, FIG. 7
Method: The effect of exogenous cytokines was measured for each parameter in the presence and absence of CGP. […] Cells were grown to confluence on transwell inserts, then challenged with a mixture of the cytokines TNFα (tumor necrosis factor alpha), ILβ (interleukin beta), and IFγ (interferon gamma) (“cytomix”) in the presence or absence of increasing concentrations of CGP. At the appropriate time points, apical to basolateral mannitol flux was measured. TEER, E-Cadherin expression and media concentrations of S1P were measured in separate experiments.

[4] = tested on: Caco-2 cells; assay: TEER during hypoxia; assay type: cell-based, human; conditions: FIG. 6
Method: (§1) The effect of hypoxia on transepithelial permeability was measured for each parameter in the presence and absence of CGP. Cells were grown to confluence in normoxic conditions on transwell inserts, then transferred to a hypoxia chamber (95% N2/5% CO2) and media was changed to one sparged with 95% N2/5% CO2 and containing no glucose. Under these conditions, which simulate ischemia, the partial pressure of residual oxygen is less than 25 mm Hg (6%). Control wells contained only media; the remaining wells contained increasing concentrations of calcium glycerophosphate. TEER and mannitol flux were measured in the hypoxia chamber. E-Cadherin expression or S1P determination was determined in room air using samples prepared in the hypoxia chamber. Hypoxia may decrease TEER and S1P, increase both apical to basolateral and basolateral to apical mannitol flux without changing E-cadherin expression. These effects may be mitigated by CGP.
Hypoxia/ischemia is a state of diminished oxygen and nutrient supply such that cellular demands are not met. […]
For these studies, cells were grown on transwells until confluent, as measured by TEER values of […]. As there is some variability in baseline TEER, all data have been expressed as a % of baseline TEER. […]

[5] = tested on: Caco-2 cells; assay: Apical to basolateral [14C]mannitol flux during hypoxia; assay type: cell-based, human; conditions: FIG. 5
Method: as §1
Hypoxia/ischemia is a state of diminished oxygen and nutrient supply such that cellular demands are not met. […] It was hypothesized that the increased transepithelial permeability is the consequence of intestinal hypoxia (itself a consequence of diversion of blood flow from the gut during heavy exercise), and that the permeability might be alleviated by CGP treatment. […]

[6] = tested on: Caco-2 cells; assay: Baseline sphingosine 1-phosphate in media by ELISA; assay type: cell-based, human; conditions: 24 hours incubation, increasing concentrations of CGP, FIG. 3
Method: It is believed that CGP elevates S1P concentrations by inhibiting dephosphorylation. S1P concentrations are measured in the media of Caco-2 cells using a commercially available ELISA kit (e.g., Echelon Catalog # K-1900). The S1P concentrations are measured in the media of Caco-2 cells in the presence and absence of CGP. Cells were incubated for 24 hours in the presence of increasing concentrations of CGP. The media was removed and assayed for […] by enzyme-linked immunoassay (ELISA).

[7] = tested on: Caco-2 cells; assay: Mannitol Flux Assay under ischemia-mimicking conditions (no glucose, 1% oxygen); assay type: cell-based, human
Method: Mannitol Flux Assay was performed as follows. At the start of the experiment (time 0), the media on the cells was changed to one containing no glucose and no fetal calf serum, and the environment was changed from 95% […]/5% CO2, to 1% oxygen, 5% CO2 and 94% nitrogen. These conditions mimic ischemia (no food, no oxygen).
It was observed that cells responded to the ischemia conditions by letting go of non-essential functions, like maintaining tight junctions. It appears that by adding CGP, the cells were able to retain tight junction integrity for a longer period of time.
Specifically, Table 2 and FIG. 4 show the percentage increase in mannitol penetration at two and four hours after CGP administration. The movement of mannitol is inversely proportional to the tightness of the tight junctions. It can be seen that the magnitude of the increase in tightness of the tight junctions (or decrease in mannitol flux) was proportional to the concentration of CGP in the media. While it is possible that the cells are merely using the glycerol phosphate to replace glucose, this is extremely unlikely, as the effect persists even at 0.000001 molar CGP. The usual glucose concentration in the media is around 10 mM, ten times greater than the highest CGP concentration, and 10,000 times greater than the lowest concentration of CGP.

[8] = tested on: Caco-2 cells; assay: Baseline E-cadherin expression; assay type: cell-based, human
Method: (3) E-Cadherin Expression:
E-cadherin is the principle protein of tight junctions. The level of E-cadherin is measured in homogenized Caco-2 cells by western blot analysis using commercially available antibodies. Since it is possible that E-cadherin might be expressed as a protein, but sequestered away from the cell membrane, surface E-cadherin is also measured using either flow cytometry or fluorescent microscopy. The ratio of surface to total E-cadherin is calculated. The expression levels of E-cadherin are measured in Caco-2 cells in the presence and absence of CGP. The expression levels of other proteins of tight junctions in Caco-2 cells in the presence or absence of CGP can also be measured using methods known in the art in view of the present disclosure.

[9] = tested on: Caco-2 cells; assay: TEER during cytomix treatment; assay type: cell-based, human; conditions: FIG. 8
Method: The effect of exogenous cytokines was measured for each parameter in the presence and absence of CGP. Both hypoxia and celiac disease are characterized by the release of cytokines by cells of the immune system. These inflammatory mediators increase monolayer permeability (M. Bayardo et al. Clin Exp Immunol.; 168(1):95-104 (2012)). Cells were grown to confluence on transwell inserts, then challenged with a mixture of the cytokines TNFα (tumor necrosis factor alpha), ILβ (interleukin beta), and IFγ (interferon gamma) (“cytomix”) in the presence or absence of increasing concentrations of CGP. At the appropriate time points, apical to basolateral mannitol flux was measured. TEER, E-Cadherin expression and media concentrations of S1P were measured in separate experiments. […] Exogenous cytokines may decrease TEER and increase mannitol flux.
Cytokines are a category of small proteins that are important in cell-cell signaling. There are many types and functions of cytokines. Three of the cytokines, TNFα (tumor necrosis factor alpha), ILβ (interleukin beta), and IFγ (interferon gamma) are involved in cell signaling during inflammation. […] First, neutrophils and other cells mediating the immune response are recruited to ischemic tissue. Second, the intestinal damage of celiac disease is dependent on inflammation. […]

[10] = tested on: Caco-2 cells; assay: Baseline mannitol flux across Caco-2 monolayers on transwell inserts; assay type: cell-based, human; conditions: increasing concentrations of CGP, FIG. 1
Method: Experiments were conducted on Caco-2 cells, a line of heterogeneous human epithelial colorectal adenocarcinoma cells derived from a colorectal carcinoma and grown on transwell permeable inserts. Despite their origins, in culture these cells express the characteristics of small intestinal enterocytes upon prolonged culture (C. Jumarie et al. J Cell. Physiol. 149: 24-33, (1991)). They are widely used as a model of transepithelial transport in the small intestine, and are considered a model for celiac disease (G. Iacomino et al. J Agric Food Chem. 6; 61(5):1088-962013 (2013); I. Caputo et al. PLoS One. 7(9):e45209 (2012); T. Rauhavirta et al. J Clin Immunol.; 33(1):134-42 (2013)).
The TEER results are verified by measuring the flux of mannitol, a polyhydroxy alcohol, across the cell monolayer. Mannitol flux is exclusively by the paracellular route, so that its movement is inversely proportional to the tightness of the tight junctions. Flux is measured in both apical to basolateral and basolateral to apical directions. The rate of flux is used to calculate a permeability coefficient for the monolayers. […]
Baseline values were obtained for each of these parameters in unstimulated cells in the presence and absence of increasing concentrations of CGP. The time course of TEER development, as well as the appropriate concentration of CGP, was determined experimentally. […]

[11] = tested on: cultured enterocytes; conditions: cited from earlier work

solubility in water [2]: approximately 1 gram in 100 mL
SMILES: O=P([O-])([O-])OCC(O)CO.[Ca+2] (centres unmarked) [CGP, 1,2,3-propanetriol, mono(dihydrogen phosphate) calcium salt (1:1)]
persistence of the CGP effect on baseline TEER ([1]; FIG. 2): gone by four hours | effect on the citrate-induced reduction in baseline TEER ([1]; FIG. 2, noticeable at two hours): prevented | effect on cytomix-induced increase in mannitol permeability [3]: delayed the permeability increase in a concentration-dependent manner | effect on TEER during hypoxia (% of baseline TEER) [4]: preserved TEER in a concentration dependent manner | time dependence of the effect on TEER during hypoxia [4]: by five hours there was no longer a discernible effect | time dependence of the effect on hypoxia induced mannitol flux [5]: diminished by four hours and absent by five hours | effect on hypoxia induced mannitol flux ([5]; concentration dependent): significantly reduced | effect on sphingosine 1-phosphate concentrations in the media [6]: does not appear to have any effect | mannitol penetration, Disintegrations Per Minute ([7]; CGP 0.000001 M, 2 hours): 77.04 Disintegrations Per Minute | mannitol penetration, Disintegrations Per Minute ([7]; CGP 0.000001 M, 4 hours): 275.0632 Disintegrations Per Minute | mannitol penetration, Disintegrations Per Minute ([7]; CGP 0.00001 M, 2 hours): 67.95 Disintegrations Per Minute | mannitol penetration, Disintegrations Per Minute ([7]; CGP 0.00001 M, 4 hours): 195.9237 Disintegrations Per Minute | mannitol penetration, Disintegrations Per Minute ([7]; CGP 0.0001 M, 2 hours): 50.47 Disintegrations Per Minute | mannitol penetration, Disintegrations Per Minute ([7]; CGP 0.0001 M, 4 hours): 188.7996 Disintegrations Per Minute | mannitol penetration, Disintegrations Per Minute ([7]; CGP 0.001 M, 2 hours): 23.11 Disintegrations Per Minute | mannitol penetration, Disintegrations Per Minute ([7]; CGP 0.001 M, 4 hours): 150.2845 Disintegrations Per Minute | lowest CGP concentration at which the effect on mannitol penetration persists ([7]; ischemia-mimicking conditions, Table 2 and FIG. 4): 1000 nM | effect on E-Cadherin expression [8]: may increase, but most likely does not change | CGP effect on TEER ([9]; 24 hours): all CGP effect was lost | TEER versus cytomix alone and control ([9]; ten hours, all CGP treated groups except 1 μM): significantly greater than cytomix alone and not different from control | effect on baseline mannitol flux across the barrier [10]: no significant effect

SMILES: CCCCCCCCCCCCC/C=C/[C@@H](O)[C@@H](N)COP(=O)(O)O [S1P, sphingosine-1-phosphate]
effect on tightness of existing tight junctions [11]: increases
